Where two headings read alike, the source gives them in different places. Marks after values point to notes of the source that are not given here.
Experiments:
[1] = test system: SW-480 xenograft (colon cancer); test: In vivo xenotransplantation study, SW-480; set-up: species or system mice; conditions: SW-480, 36 mg/kg i.v., 3 days on, 4 days off, 3 cycles; mean tumor area
Experimental: (§1) For this purpose, immunocompromised mice were implanted subcutaneously with tumor cells or tumor fragments. […] Intravenous treatments were performed on three consecutive days once daily followed by four days drug holiday without treatments. The tumor size and the body weight were determined at least weekly. The tumor area was detected by means of an electronic caliper [length (mm)×width (mm)]. The experimental groups were ended when the group reached the pre-determined ethical endpoint based on German and European animal welfare regulations. In vivo anti-tumor efficacy is presented as T/C ratio of mean tumor area measured for treatment and control group on the last day at which the vehicle control remained in study (Treatment/Control; mean tumor area of treatment group/mean tumor area of control group. A compound having a T/C below 0.5 is defined as active (i.e., effective). Statistical analysis was assessed using SigmaStat software. A one-way analysis of variance was performed and differences to the control were compared by a pair-wise comparison procedure (Dunn's method).

[2] = test system: NCI-H69 xenograft (lung cancer); test: In vivo xenotransplantation study, NCI-H69; set-up: species or system mice; conditions: NCI-H69, 40 mg/kg i.v., 3 days on, 4 days off, 3 cycles; mean tumor area
Experimental: as §1

[3] = test system: 786-O xenograft (renal cancer); test: In vivo xenotransplantation study, 786-O; set-up: species or system mice; conditions: 36 mg/kg i.v., 3 days on, 4 days off, 3 cycles, mean tumor area
Experimental: as §1

αvβ3 receptor = molecular target: T1, αvβ3 receptor (Homo sapiens, UniProt P05106+P06756); test: αvβ3 binding test (echistatin SPA)
T1 construct: αvβ3 from human A375 cells was purified analogously to a procedure described by Wong et al; endogenous in cells; host or cells: human A375 cells (receptor purified from the cells)
T1 sequence (P06756 31-889 limits assumed): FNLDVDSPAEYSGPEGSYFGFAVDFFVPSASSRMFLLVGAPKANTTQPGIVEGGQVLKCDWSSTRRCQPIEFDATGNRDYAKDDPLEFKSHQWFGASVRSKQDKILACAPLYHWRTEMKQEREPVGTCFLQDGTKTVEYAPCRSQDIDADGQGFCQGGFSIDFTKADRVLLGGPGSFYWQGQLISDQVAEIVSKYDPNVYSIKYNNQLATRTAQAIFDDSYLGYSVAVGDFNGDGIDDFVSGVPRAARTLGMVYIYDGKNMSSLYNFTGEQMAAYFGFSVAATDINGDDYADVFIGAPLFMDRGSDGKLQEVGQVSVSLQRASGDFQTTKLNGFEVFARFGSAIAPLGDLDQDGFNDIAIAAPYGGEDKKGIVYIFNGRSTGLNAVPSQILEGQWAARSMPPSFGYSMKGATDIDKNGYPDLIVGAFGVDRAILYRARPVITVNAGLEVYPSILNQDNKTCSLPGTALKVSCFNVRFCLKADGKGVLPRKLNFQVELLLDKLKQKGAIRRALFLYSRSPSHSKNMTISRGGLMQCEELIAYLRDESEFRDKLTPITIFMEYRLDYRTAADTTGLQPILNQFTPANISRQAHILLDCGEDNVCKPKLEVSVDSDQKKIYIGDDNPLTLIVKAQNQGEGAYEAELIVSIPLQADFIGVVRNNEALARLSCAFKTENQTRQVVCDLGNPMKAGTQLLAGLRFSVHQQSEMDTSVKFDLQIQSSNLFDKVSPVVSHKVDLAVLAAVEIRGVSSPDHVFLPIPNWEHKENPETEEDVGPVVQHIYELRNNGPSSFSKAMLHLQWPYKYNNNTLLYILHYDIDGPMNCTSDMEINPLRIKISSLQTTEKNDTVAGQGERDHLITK
T1 sequence (P06756 891-1048 partner limits assumed): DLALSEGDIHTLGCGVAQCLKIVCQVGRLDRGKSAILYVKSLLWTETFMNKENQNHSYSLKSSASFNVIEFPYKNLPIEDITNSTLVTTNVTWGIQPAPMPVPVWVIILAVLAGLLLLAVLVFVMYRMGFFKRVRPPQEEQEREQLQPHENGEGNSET
T1 sequence (P05106 27-788): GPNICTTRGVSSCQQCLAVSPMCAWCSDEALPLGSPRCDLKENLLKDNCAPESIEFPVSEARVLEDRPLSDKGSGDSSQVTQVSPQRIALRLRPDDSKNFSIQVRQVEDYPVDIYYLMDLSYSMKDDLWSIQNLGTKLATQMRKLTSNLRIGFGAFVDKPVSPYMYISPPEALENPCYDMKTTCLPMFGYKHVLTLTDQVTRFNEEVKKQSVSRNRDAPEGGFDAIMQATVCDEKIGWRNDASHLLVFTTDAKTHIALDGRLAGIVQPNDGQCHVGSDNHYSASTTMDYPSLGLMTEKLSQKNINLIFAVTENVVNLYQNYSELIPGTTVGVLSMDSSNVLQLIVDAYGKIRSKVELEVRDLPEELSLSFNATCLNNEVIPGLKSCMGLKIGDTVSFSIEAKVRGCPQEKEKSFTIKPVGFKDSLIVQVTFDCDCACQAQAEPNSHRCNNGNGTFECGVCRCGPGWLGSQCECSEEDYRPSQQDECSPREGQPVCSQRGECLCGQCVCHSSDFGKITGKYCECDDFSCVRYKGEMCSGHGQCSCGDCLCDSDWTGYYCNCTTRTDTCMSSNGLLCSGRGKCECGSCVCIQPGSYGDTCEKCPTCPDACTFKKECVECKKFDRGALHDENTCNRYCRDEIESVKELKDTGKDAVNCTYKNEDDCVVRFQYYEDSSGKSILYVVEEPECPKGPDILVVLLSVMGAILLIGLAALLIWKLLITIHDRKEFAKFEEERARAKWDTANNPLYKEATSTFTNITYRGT
Experimental: αvβ3 from human A375 cells was purified analogously to a procedure described by Wong et al. in Molecular Pharmacology 50, 529-537 (1996). In each case, 10 μL of αvβ3 (5 ng) in TBS PH 7.6, 2 mM CaCl2. 1 mM MgCl2. 1% n-octylglucopyranoside (Sigma): 10 μL of test substance in TBS pH 7.6. 0.1% DMSO and 45 μL of TBS pH 7.6. 2 mM CaCl2, 1 mM MgCl2, 1 mM MnCl2 were incubated at room temperature for 1 h. In each case, 25 μL of WGA SPA beads (Amersham, 4 mg/ml) and 10 μL of echistatin (0.1 μCi, Amersham, chloramine-T labelled) were then added. After 16 h at room temperature, the samples were measured in a scintillation measuring apparatus (Wallac 1450).

Solubility in vehicles = assay type: physicochemical; conditions: room temperature (25° C.)
Experimental: Method: For each vehicle to be tested. 0.5-1.0 mg test compound were weighed into a 2 ml Eppendorf vial. 2-3 Glas perls (Ø 3 mm) and 1.0 ml vehicle were added. The vial was shaken at 1400 rpm for 24 hrs at room temperature (25° C.). After this time period the supernatant (approx. 230 μl was transferred to a centrifuge tube. After 30 min at 42 000 rpm the solute was transferred to another vial and diluted with DMSO (1:5 and 1:50). These two dilutions were analyzed by HPLC (read out: area)
• Eluent A: 1 ml Trifluoro acetic acid/L water • Eluent B: 1 ml Trifluoro acetic acid/L acetonitrile • Gradient:
• Column: ZORBAX Extend-C18, 3.0×50 mm, 3, 5 μm • Oven temperature: 30° C. • Detection: 214 and 254 nm • Injection volume: 20 μl
For quantification a calibration curve was obtained from DMSO solution of the test compound ([…], 20 μg/ml and 2.5 μg/ml) by employing the same HPLC method.

[4] = test system: MX1 xenograft (breast cancer); test: In vivo xenotransplantation study, MX1; set-up: species or system mice; conditions: MX1, 36 mg/kg i.v., 3 days on, 4 days off, 3 cycles; mean tumor area
Experimental: as §1

[5] = Plasma stability in rat plasma; assay type: in vitro ADME; conditions: 37° C.
Experimental: For complete dissolution the HPLC vial was shaken and treated with ultrasound. 500 μl of this solution were added to 0.5 mL of rat plasma with vortexing at a temperature of 37° C. Aliquots (10 μL each) were taken at respective time points and analyzed by HPLC to determine the amount of the test compound. All data is given as percent area of the initial compound at t0.

[6] = Stability in citric acid buffer at pH 4; assay type: physicochemical; conditions: 37° C., peak area
Experimental: Method: 0.15 mg of the test compound were solved in 0.1 ml dimethylsulfoxide and 0.4 ml acetonitrile. For complete dissolution the HPLC vial with the sample solution was shaken and sonicated. Then 1.0 ml of the respective buffer solution (Citrate buffer pH 4; citric acid/sodium hydroxide/sodium chloride Fluka 33643) was added and the sample was vortexed. The sample solution was analysed by HPLC to determine the amount of the test compound and up to two byproducts at a particular time (0, 1, 2 4, 24 hrs) over a period of 24 h at 37° C. t(0) values resulted from a sample immediately taken after vortexing with buffer at RT. The peak areas (in percentage) were used for quantification.
LC & LC/MS purity analysis: The starting material was analyzed for purity by LC; the 24 h sample was additionally analyzed by LC/MS (Waters Quattro Micro).

786-O cell line = test: Cytotoxicity in vitro (MTT) in the presence and absence of elastase, 786-O; assay type: cell-based
Experimental: (§2) Cultivation of cells was performed according to standard procedures with the media recommended by the provider. The cells in a total volume of 100 μL were seeded in a 96-well plate with white bottom (#3610). After a 24 h incubation period at 37° C. and 5% CO2, the medium was changed by adding 90 μL fresh medium. The treatment starts by adding the test compound to the cells in 10 μl of culture medium. Concentrations from 10^−5 M to 10^−13 M in triplicates were chosen followed by an incubation at 37° C. and 5% carbon dioxide. One set of samples were only treated with the test compound whereas to an otherwise identically treated second set of samples also 10 nM elastase was pipetted. After 72 h. the proliferation is detected using the MTT assay (ATCC). At the end of the incubation period the MTT reagent is added to all samples for 4 h, followed by lysis of the cells overnight by addition of the detergent. The dye formed was detected at 570 nm. The proliferation of cells which were not treated with test substance but were otherwise identically treated was defined as the 100% value. (FIG. 1 and table 4).

HT29 cell line = test: Cytotoxicity in vitro (MTT) in the presence and absence of elastase, HT29; assay type: cell-based; conditions: 72 h
Experimental: as §2

In the case of CCCNC(=O)Nc1cccc(S(=O)(=O)Nc2cccc([C@@H](CC(=O)[O-])NC(=O)Nc3ccc(NC(=O)NCCOCCOCCOCCC(=O)N[C@@H](CC(=O)[O-])C(=O)N4CCC[C@H]4C(=O)N[C@H](C(=O)O[C@]4(CC)C(=O)OCc5c4cc4n(c5=O)Cc5c-4nc4ccccc4c5CC)C(C)C)cc3)c2)c1.[Na+].[Na+] [Example 1, disodium (4S)-4,11-diethyl-3,14-dioxo-3,4,12,14-tetrahydro-1H-pyrano[3′,4′: 6,7]indolizino [1,2-b]quinolin-4-yl 1-{(2S)-2-(carboxylatomethyl)-17-[4-({[(1R)-2-carboxylato-1-{3-[({3-[(propyl-carbamoyl)amino]phenyl}sulfonyl)amino]phenyl}ethyl]carbamoyl}amino)anilino]-4,17-dioxo-7,10,13-trioxa-3,16-diazaheptadecan-1-oyl}-L-prolyl-L-valinate], the T/C [1] is reported as 0.1*, the T/C [2] is reported as 0.06* and the T/C [3] is reported as 0.19*. For the same molecule, the IC50 (αvβ3 receptor) was 29 nM, the solubility at 24 h (Solubility in vehicles; read-out: Solubility in 0.9% NaCl in H2O) was 465 µg/mL and the solubility at 24 h (Solubility in vehicles; read-out: Solubility in 5% D-Mannitol) was > 500 µg/mL. The T/C [4] was 0.03*, the “stable in rat plasma for” value [5] was > 24 h and the “Stability in citric acid buffer at pH 4, 4h” value ([6]; 4 h) was 100%. The “Stability in citric acid buffer at pH 4, 24h” value ([6]; 24 h) was 95%, the Specificity factor (786-O cell line; 786-O, IC50 w/o elastase versus w elastase) was 165 and the IC50 (786-O cell line; 72 h, MTT, 10 nM elastase, read-out: 786-O cell line IC50 w elastase) was 1.1 nM. It also gave an IC50 (786-O cell line; 72 h, MTT, without elastase, read-out: 786-O cell line IC50 w/o elastase) of 188 nM, an IC50 (786-O cell line; side by side comparison, elastase with higher enzymatic activity used, read-out: 786-O cell line IC50 w elastase) of 0.17 nM and an IC50 (786-O cell line; side by side comparison, without elastase, read-out: 786-O cell line IC50 w/o elastase) of 28 nM. For the same molecule, the IC50 (HT29 cell line; 10 nM elastase, read-out: HT29 cell line IC50 w elastase) was 8.7 nM and the IC50 (HT29 cell line; without elastase, read-out: HT29 cell line IC50 w/o elastase) was 245 nM.

— patent US20240325553A1, “CYTOSTATIC CONJUGATES WITH INTEGRIN LIGANDS” (priority 2018, published 2024)
